Results taken from patent US8278359B2, “Compositions containing amines and use thereof to treat acne or reduce the appearance of oil or pores on the skin” (Johnson & Johnson Consumer Companies, Inc., priority 2005, dated 2012).
Marks after values point to notes of the source that are not given here.

Key:
[1] = test system: GM-CSF (granulocyte macrophage stimulating factor); test: PHA-stimulated peripheral blood lymphocyte cytokine release: GM-CSF; assay type: cell-based; details: Homo sapiens, 48 h, read-out: GMCSF % inh.
Description: The ability of various amines to affect the inflammatory responses was illustrated by its ability to reduce the production of cytokines by human lymphocytes stimulated with the T-cell receptor (TCR) activating agent phytohaemagglutinin (PHA) in the following assay.
Human leukocytes were collected from a healthy adult […] via leukopheresis, and adjusted to a density Of 1×10^6 cells/mL in serum free lymphocyte growth medium (ExVivo-15, Biowhittaker, Walkersville, Md.). PBLs were stimulated with 10 μg/mL PHA in the presence or absence of test samples following published methods (Hamamoto Y., et al. Exp Dermatol 2:231-235, 1993). The following compounds were evaluated N,N,N′,N′-Tetrakis(2-hydroxypropyl)ethylenediamine (THPED, available from BASF under the tradename “Quadrol” or “Neutrol”), N,N,N,N-Tetramethylethylenediamine (TEMED, available from Pfaltz & Bauer Chemicals (Waterbury, Conn.)), and Diethylenetriamine (available from Sigma-Aldrich) Following a 48 hour incubation at 37° C. with 5% CO2, the supernatant was removed and evaluated for cytokine content using commercially available multiplex cytokine detection kit.

IL-1A = test: UV-induced IL-1A release on reconstituted epidermis (EPI 200 HCF epidermal equivalents); assay type: cell-based, human; details: 0.5% w/v topical
Experimental: The effect of diamines was evaluated for topical anti-inflammatory activity on human epidermal equivalents. Epidermal equivalents (EPI 200 HCF), multilayer and differentiated epidermis consisting of normal, human epidermal keratinocytes, were purchased from MatTek (Ashland, Mass.). Upon receipt, epidermal equivalents were incubated for 24 hours at 37° C. in maintenance medium without hydrocortisone. Equivalents were topically treated (2 mg/cm^2) with compounds in 70% ethanol/30% propylene glycol vehicle at the indicated concentration 2 hours before exposure to solar ultraviolet light (1000 W-Oriel solar simulator equipped with a 1-mm Schott WG 320 filter; UV dose applied: 70 kJ/m^2 as measured at 360 nm). Equivalents were incubated for 24 hours at 37° C. with maintenance medium then supernatants were analyzed for IL-1A cytokine release using commercially available kits (Upstate Biotechnology, Charlottesville, Va.).

B16 cells = test: Induction of pigmentation in vitro, DOPA staining; assay type: cell-based, murine; details: pH 7.2, 48 hours
Experimental: THPED was tested for its effect on pigmentation, using melanocytes, DOPA staining and computerized image analysis. THPED was obtained from BASF (Florham Park, N.J.). THPED was dissolved in culture medium and pH was adjusted to neutral (pH 7.2). THPED was assayed at concentrations ranging from 0.05-0.01%.
B16 cells (a murine melanoma cell line) were obtained from American Type Culture Collection (Manassas, Va.). Cells were cultured in Dulbecco's Modified Eagle Medium (DMEM) containing 10% fetal bovine serum (FBS), 4.5 mg/ml glucose, 2 mM L-glutamine, sodium pyruvate, without phenol red (Invitrogen, Carlsbad, Calif.). B16 cells were plated on 12 well tissue culture plates (Corning Costar, San Diego, Calif.), at 40,000 cells per well in the above culture media. Cells were allowed to grow overnight and then treated with various concentrations of THPED at pH 7.2 for total 48 hours. Fresh media containing the experimental treatments were changed once daily.
At the end of the treatment, the cells were washed for 5 minutes, twice, in phosphate-buffered saline (PBS, from Life Technologies, Gaithersburg, Md.), then briefly fixed in 10% buffered formalin (from Sigma St. Louis, Mo.) for 10 minutes, washed three times with PBS and stained with 0.1% L-3,4-Dihydroxyphenylalanine (DOPA, from Sigma, St. Louis, Mo.) in PBS for 2-3 hours at 37° C., followed by three PBS washes. DOPA is a substrate for tyrosinase; therefore an increase in staining represents increased tyrosinase activity and pigment production. Images of DOPA-stained cells were taken using a Leica DMIL microscope (Bannockburn, Ill.) and an OPTRONICS DEI-750 digital camera (Goleta, Calif.). All images were obtained and analyzed with Image Pro Plus 4.0 software (Media Cybernetics, Silver Spring, Md.).
The pigment change was evaluated using the scale defined in Table XII.

tyrosinase = test: Tyrosinase protein levels in B16 cells (Western blot, normalized to β-Actin); assay type: cell-based, murine; details: pH 7.2, 48 hours, PBS treated control = 1
Experimental: THPED was also tested for its ability to induce tyrosinase protein levels in B16 cells. B16 cells were treated with THPED at different concentrations at pH 7.2 for 48 hours and cells were then lysed in 250 μl of PBS containing 1% Triton X-100. B16 cell lysates containing 3.7 μg of protein (for tyrosinase protein analysis) and 1.2 μg of protein (for β-Actin protein analysis) were electrophoresed on 4-20% Tris-Glycine SDS PAGE minigels (Invitrogen, Carlsbad, Calif.), transferred onto PVDF membrane (Bio Rad, Hercules, Calif.), and probed with antibodies for Tyrosinase (1:200 in PBS+0.2% Tween 20+5% BSA, obtained from Santa Cruz Biotechnology, Inc., Santa Cruz, Calif.) and β-Actin (1:2000 in PBS+0.2% Tween 20+5% BSA, obtained from Sigma, St. Louis, Mo.). Protein expression of tyrosinase and β-Actin were analyzed using ECL reagent and Hyperfilm ECL obtained from Amersham (Piscataway, N.J.). The film was developed using a Konica SRX-101A Processor (East Orange, N.J.).
Tyrosinase protein level in untreated B16 cells was normalized to 1.

facial skin pores = test: Clinical study: reduction of pore size on facial skin, parallel-polarized image analysis; assay type: in vivo, human; details: composition containing 2.5% THPED, 45 minutes
Description: A composition containing 2.5% THPED was compared to a corresponding placebo composition for the reduction of pore size on facial skin. 31 subjects were enrolled in the study, with all of the subjects completing the protocol. Table XVII discloses the formulation of the two compositions.
About 0.45-0.52 g of each composition was applied on one side of the face for each subject and allowed to dry. Each composition was applied only once to the area for the duration of this study. At baseline and 45 minutes after composition application, parallel-polarized digital images were taken of the entire face to document changes observed in pore size. Pore Size Reduction was evaluated using computer analysis of Parallel-Polarized images of the face.

With CC(O)CN(CCN(CC(C)O)CC(C)O)CC(C)O (stereo not drawn) [THPED, N,N,N′,N′-Tetrakis(2-hydroxypropyl)ethylenediamine] the inhibition at 10 µg/mL [1] was 10.3%, the inhibition at 100 µg/mL [1] was 15.8% and the “Mean +/− Std Dev of IL-1A Release” value (IL-1A; 2 hours before UV (70 kJ/m^2), 24 hours after) was 357.3 ± 92.1 ng/mL. The inhibition at 0.5 % strength (IL-1A; Homo sapiens, 2 hours before UV, vs UV, Vehicle, read-out: Percent Inhibition of Skin Inflammation) was 0%, the Pigmentation score (B16 cells; 0.01% (w/v)) was 1 and the Pigmentation score (B16 cells; 0.025% (w/v)) was 2. The Pigmentation score (B16 cells; 0.05% (w/v)) was 4, the “Relative increase in tyrosinase protein” value (tyrosinase; 0.01%) was 3 fold and the “Relative increase in tyrosinase protein” value (tyrosinase; 0.025%) was 25 fold. For the same molecule, the “Relative increase in tyrosinase protein” value (tyrosinase; 0.05%) was 36 fold, the “% Of Pore Size Reduction over Placebo” value (facial skin pores; single application, subject responders) was 7.11%* and the “greater pore reduction response than the placebo alone” value (facial skin pores) was 19.4%.
